Key:
[1] = Selectivity index, ratio of HC50 for sheep RBC to ED50 for induction of biofilm eradication of Pseudomonas aeruginosa PAO1; assay type: toxicity; conditions: sheep red blood cells (erythrocytes)
[2] = test system: Pseudomonas aeruginosa; assay: Induction of Pseudomonas aeruginosa PAO1 agglutination after 1 hr by binocular stereo microscopic method; assay type: functional
[3] = test system: HepG2; assay: Cytotoxicity against human HepG2 cells after 4 hrs by MTT assay; assay type: cell-based; conditions: HepG2, 4 h
[4] = Selectivity index, ratio of IC50 for human MRC5 cells to ED50 for induction of biofilm eradication of Pseudomonas aeruginosa PAO1; assay type: toxicity
[5] = test system: Pseudomonas aeruginosa; assay: Bactericidal activity against Pseudomonas aeruginosa PAO1 planktonic cells after 4 hrs by BacTiter-Glo assay; assay type: functional; conditions: PAO1, 4 h, read-out: ED50 (the source's name)
[6] = test system: Pseudomonas aeruginosa; assay: Induction of biofilm eradication of Pseudomonas aeruginosa PAO1 after 4 hrs by BacTiter-Glo assay; assay type: functional; conditions: PAO1, 4 h, read-out: ED50 (the source's name)
[7] = Hemolytic activity in sheep RBC after 4 hrs; assay type: ADME, cell-based, Ovis aries, Erythrocyte; conditions: sheep red blood cells (erythrocytes)
[8] = test system: MRC5; assay: Cytotoxicity against human MRC5 cells after 4 hrs by MTT assay; assay type: cell-based; conditions: MRC5, 4 h
[9] = test system: Lipopolysaccharide (LPS); assay: Displacement of BODIPY TR cadaverine from Pseudomonas aeruginosa LPS by fluorescence assay
[10] = test system: Lipopolysaccharide (LPS); assay: Displacement of BODIPY TR cadaverine from Pseudomonas aeruginosa LPS at 1 uM by fluorescence assay relative to control
[11] = test system: Pseudomonas aeruginosa; assay: Bactericidal activity against Pseudomonas aeruginosa PAO1 planktonic cells at 1 uM after 4 hrs by BacTiter-Glo assay relative to control; assay type: functional
[12] = Hemolytic activity in sheep RBC at 10 uM after 4 hrs relative to control; assay type: ADME, cell-based, Ovis aries, Erythrocyte; conditions: sheep red blood cells (erythrocytes), read-out: Activity

ED50 [9] | inhibition [10] | Molecule | selectivity ratio [1] | MAC [2] | IC50 [3] | selectivity ratio [4] | EC50 [5] | EC50 [6] | HC50 at 4 h [7] | IC50 [8] | Activity [11] | hemolysis at 4 h, 10 µM [12]
3.42 µM |  | H-RPFIRAQWFAIQHISPRTIAMRAINNYRWR-OH | 16 to 60 | 0.25 µM | 95.8 µM | 16 to 60 | 0.55 µM | 2.37 µM | > 150 µM | > 150 µM |  | 
2.85 µM | 40% | CC[C@H](C)[C@H](NC(=O)[C@H](C)NC(=O)[C@H](CCCNC(=N)N)NC(=O)[C@H](CCSC)NC(=O)[C@H](C)NC(=O)[C@@H](NC(=O)[C@@H](NC(=O)[C@H](CCCNC(=N)N)NC(=O)[C@@H]1CCCN1C(=O)[C@H](CO)NC(=O)[C@@H](NC(=O)[C@H](Cc1cnc[nH]1)NC(=O)[C@H](CCC(N)=O)NC(=O)[C@@H](NC(=O)[C@H](C)NC(=O)[C@H](Cc1ccccc1)NC(=O)[C@H](Cc1c[nH]c2ccccc12)NC(=O)[C@H](CCC(N)=O)NC(=O)[C@H](C)NC(=O)[C@H](CCCNC(=N)N)NC(=O)[C@@H](NC(=O)[C@H](Cc1ccccc1)NC(=O)[C@@H]1CCCN1C(=O)[C@@H](N)CCCNC(=N)N)[C@@H](C)O)[C@@H](C)CC)[C@@H](C)CC)[C@H](C)O)[C@@H](C)CC)C(=O)N[C@@H](CC(N)=O)C(=O)N[C@@H](CC(N)=O)C(=O)N[C@@H](Cc1ccc(O)cc1)C(=O)N[C@@H](CCCNC(=N)N)C(=O)N[C@@H](Cc1c[nH]c2ccccc12)C(=O)N[C@@H](CCCNC(=N)N)C(=O)O | 16 to 60 | 1 µM | 74.4 µM | 16 to 60 | 1.34 µM | 6.62 µM | > 150 µM | > 150 µM | 50% | 10%
3.07 µM |  | H-RPFTRAQIFAIQHISPRTIAMRAINNYRWR-OH | 16 to 60 | 0.125 µM | 172 µM | 16 to 60 | 0.25 µM | 4.37 µM | > 150 µM | > 150 µM |  | 
1.66 µM |  | CC[C@H](C)[C@H](NC(=O)[C@H](C)NC(=O)[C@H](CCCNC(=N)N)NC(=O)[C@H](CCSC)NC(=O)[C@H](C)NC(=O)[C@@H](NC(=O)[C@@H](NC(=O)[C@H](CCCNC(=N)N)NC(=O)[C@@H]1CCCN1C(=O)[C@H](CO)NC(=O)[C@@H](NC(=O)[C@H](Cc1cnc[nH]1)NC(=O)[C@@H](NC(=O)[C@@H](NC(=O)[C@H](C)NC(=O)[C@H](Cc1ccccc1)NC(=O)[C@H](Cc1c[nH]c2ccccc12)NC(=O)[C@H](CCC(N)=O)NC(=O)[C@H](C)NC(=O)[C@H](CCCNC(=N)N)NC(=O)[C@@H](NC(=O)[C@H](Cc1ccccc1)NC(=O)[C@@H]1CCCN1C(=O)[C@@H](N)CCCNC(=N)N)[C@H](C)O)[C@@H](C)CC)[C@@H](C)CC)[C@@H](C)CC)[C@@H](C)O)[C@@H](C)CC)C(=O)N[C@@H](CC(N)=O)C(=O)N[C@@H](CC(N)=O)C(=O)N[C@@H](Cc1ccc(O)cc1)C(=O)N[C@@H](CCCNC(=N)N)C(=O)N[C@@H](Cc1c[nH]c2ccccc12)C(=O)N[C@@H](CCCNC(=N)N)C(=O)O | 16 to 60 | 0.25 µM | 59.6 µM | 16 to 60 | 0.44 µM | 3.19 µM | > 100 µM | > 100 µM |  | 

From ChEMBL document CHEMBL4152261, “Positional scanning library applied to the human eosinophil cationic protein/RNase3 N-terminus reveals novel and potent anti-biofilm peptides” (Eur J Med Chem, 2018)
